Legend:
Diamond back moth = assay: insecticidal activity against diamond back moth, airbrush spray; type: in vivo; conditions: mortality after 72 hrs
Outline: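 Airbrush leaf-disc spray test: both faces of 2 cm cabbage discs received 0.5 ml of test solution at 0.7 kg/cm^2. Solutions were made in acetone:methanol (1:1) and brought to concentration with 0.1% Tween 80 in water. Ten second-instar larvae per disc, triplicates, were held at 25° C and 60˜70% R.H., with mortality recorded at 72 hrs.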

armyworm = assay: bioactivity test against armyworm, airbrush spray; type: in vivo
[1] = test system: Green peach aphids (Myzus Persicae Sulzer); assay: bioactivity test against green peach aphid, airbrush foliar spray; type: in vivo
Outline: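 Aphids (15-30 per cabbage leaf disc) on moist filter paper were airbrush-sprayed at 10 psi, 0.5 mL, with compound from acetone:methanol (1:1) diluted in water with 0.1% tween 80. Held at 25±1 C, 60±5% RH; survivors counted after 48 hrs to give death rates.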

carmine spider mite = assay: bioactivity test against carmine spider mite, airbrush spray; type: in vivo
Outline: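 Broadbean seedlings infested with adult mites were sprayed with compound (acetone/methanol stock diluted in 0.1% Tween 80 water) by airbrush at 0.7 kg/cm^2, 0.5 ml. Three replicates were run. Mortality was scored after 72 hrs.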

corn rust = assay: protectant activity in vivo against corn rust
wheat powdery mildew = assay: protectant activity in vivo against wheat powdery mildew
[2] = 2.5 ppm, death rate after 48 hrs
[3] = 10 ppm, death rate after 48 hrs
[4] = 100 ppm, death rate after 48 hrs
[5] = 600 ppm, death rate after 48 hrs
[6] = 100 ppm, mortality after 72 hrs
[7] = 600 ppm, mortality after 72 hrs

| Compound | control (test results against diamond back moth) (Diamond back moth; 100 ppm) | control (test results against armyworm) (armyworm; 100 ppm, mortality after 72 h) | control (test results against green peach aphid) [1, 2] | control (test results against green peach aphid) ([1]; 5 ppm, death rate after 48 hrs) | Insecticidal activity against carmine spider mite (% ) (carmine spider mite; 2.5 mg/L) | Insecticidal activity against carmine spider mite (% ) (carmine spider mite; 5 mg/L) | Insecticidal activity against carmine spider mite (% ) (carmine spider mite; 10 mg/L, contrastive test) | Insecticidal activity against carmine spider mite (% ) (carmine spider mite; 100 mg/L, contrastive test) | Insecticidal activity against carmine spider mite (% ) (carmine spider mite; 600 mg/L, contrastive test) | control against carmine spider mite (carmine spider mite; 10 ppm, mortality after 72 hrs) | control (test results against diamond back moth) (Diamond back moth; 600 ppm) | control (test results against armyworm) (armyworm; 600 ppm, mortality after 72 h) | Insecticidal activity against peach aphid (%) ([1]; 1.25 mg/L, contrastive test) | Insecticidal activity against peach aphid (%) ([1]; 2.5 mg/L, contrastive test) | Insecticidal activity against peach aphid (%) ([1]; 5 mg/L, contrastive test) | Insecticidal activity against peach aphid (%) ([1]; 10 mg/L, contrastive test) | Insecticidal activity against peach aphid (%) ([1]; 100 mg/L, contrastive test) | Insecticidal activity against peach aphid (%) ([1]; 600 mg/L, contrastive test) | control (test results against green peach aphid) [1, 3] | control (test results against green peach aphid) [1, 4] | other results |
| --- | --- | --- | --- | --- | --- | --- | --- | --- | --- | --- | --- | --- | --- | --- | --- | --- | --- | --- | --- | --- | --- |
| CCc1ncnc(NCCc2ccc(Oc3ccc(C(F)(F)F)cn3)cc2)c1Cl.Cl [Compound I-6739] | 100% | 100% | 100% | 100% | 76% | 93% | 100% | 100% | 100% | 100% | – | – | – | – | – | – | – | – | – | – | pest or weed control at 600 ppm (Diamond back moth; 72 h, 600 ppm, read-out: control (test results against diamond back moth)): 100%; pest or weed control at 600 ppm (armyworm; 72 h, 600 ppm, mortality after 72 h): 100%; pest or weed control at 1.25 µg/mL ([1]; Myzus persicae, foliar, 48 h, 1.25 mg/L, contrastive test, read-out: Insecticidal activity against peach aphid (%)): 100%; pest or weed control at 2.5 µg/mL ([1]; Myzus persicae, foliar, 48 h, 2.5 mg/L, contrastive test, read-out: Insecticidal activity against peach aphid (%)): 100%; pest or weed control at 5 µg/mL ([1]; Myzus persicae, foliar, 48 h, 5 mg/L, contrastive test, read-out: Insecticidal activity against peach aphid (%)): 100%; pest or weed control at 10 µg/mL ([1]; Myzus persicae, foliar, 48 h, 10 mg/L, contrastive test, read-out: Insecticidal activity against peach aphid (%)): 100%; pest or weed control at 100 µg/mL ([1]; Myzus persicae, foliar, 48 h, 100 mg/L, contrastive test, read-out: Insecticidal activity against peach aphid (%)): 100%; pest or weed control at 600 µg/mL ([1]; Myzus persicae, foliar, 48 h, 600 mg/L, contrastive test, read-out: Insecticidal activity against peach aphid (%)): 100%; pest or weed control at 10 ppm ([1]; Myzus persicae, foliar, 48 h, 10 ppm, death rate after 48 hrs): 100%; pest or weed control at 100 ppm ([1]; Myzus persicae, foliar, 48 h, 100 ppm, death rate after 48 hrs): 100%; pest or weed control at 600 ppm ([1]; Myzus persicae, foliar, 48 h, 600 ppm, death rate after 48 hrs): 100%; pest or weed control at 100 ppm (carmine spider mite; Tetranychus cinnabarinus, 72 h, 100 ppm, mortality after 72 hrs): 100%; pest or weed control at 600 ppm (carmine spider mite; Tetranychus cinnabarinus, 72 h, 600 ppm, mortality after 72 hrs): 100%; pest or weed control at 100 ppm (corn rust; Zea mays, 168 h, read-out: protectant activity against corn rust in vivo, 100 ppm): 100%; pest or weed control at 400 ppm (corn rust; Zea mays, 168 h, read-out: protectant activity against corn rust in vivo, 400 ppm): 100%; protectant activity against wheat powdery mildew in vivo (wheat powdery mildew; 25 ppm): 100%; pest or weed control at 6.25 ppm (wheat powdery mildew; Triticum aestivum, 168 h, read-out: protectant activity against wheat powdery mildew in vivo, 6.25 ppm): 80 to 99%; pest or weed control at 100 ppm (wheat powdery mildew; Triticum aestivum, 168 h, read-out: protectant activity against wheat powdery mildew in vivo, 100 ppm): 100%; pest or weed control at 400 ppm (wheat powdery mildew; Triticum aestivum, 168 h, read-out: protectant activity against wheat powdery mildew in vivo, 400 ppm): 100% |
| CCc1ncnc(NCCc2ccc(Oc3ccc(C(F)(F)F)cn3)cc2)c1Cl [Compound I-6756] | 100% | 100% | 100% | 100% | 71% | 88% | 100% | 100% | 100% | 100% | 100% | 100% | 100% | 100% | 100% | 100% | 100% | 100% | 100% | 100% | Insecticidal activity against armyworm (%) (armyworm; 10 mg/L): 28%; Insecticidal activity against armyworm (%) (armyworm; 100 mg/L): 100%; Insecticidal activity against armyworm (%) (armyworm; 600 mg/L): 100%; control (test results against green peach aphid) [1, 5]: 100%; control against carmine spider mite (carmine spider mite; [6]): 100%; control against carmine spider mite (carmine spider mite; [7]): 100%; protectant activity against corn rust in vivo (corn rust; 100 ppm): 100%; protectant activity against corn rust in vivo (corn rust; 400 ppm): 100%; protectant activity against wheat powdery mildew in vivo (wheat powdery mildew; 100 ppm): 100%; protectant activity against wheat powdery mildew in vivo (wheat powdery mildew; 400 ppm): 100% |
| CCc1ncnc(NCCc2ccc(Oc3ccc(C(F)(F)F)cn3)cc2)c1Cl [Compound I-6757] | 100% | 100% | 100% | – | 75% | 80% | – | – | – | – | 100% | 100% | 100% | 100% | 100% | 100% | 100% | 100% | 100% | 100% | pest or weed control at 10 µg/mL (armyworm; 72 h, 10 mg/L, read-out: Insecticidal activity against armyworm (%)): 28%; pest or weed control at 100 µg/mL (armyworm; 72 h, 100 mg/L, read-out: Insecticidal activity against armyworm (%)): 100%; pest or weed control at 600 µg/mL (armyworm; 72 h, 600 mg/L, read-out: Insecticidal activity against armyworm (%)): 100%; control (test results against green peach aphid) [1, 5]: 100%; pest or weed control at 5 ppm ([1]; Myzus persicae, foliar, 48 h, 5 ppm, death rate after 48 hrs): 100%; control against carmine spider mite (carmine spider mite; [6]): 100%; control against carmine spider mite (carmine spider mite; [7]): 100%; pest or weed control at 10 µg/mL (carmine spider mite; Tetranychus cinnabarinus, 72 h, 10 mg/L, contrastive test, read-out: Insecticidal activity against carmine spider mite (% )): 97%; pest or weed control at 100 µg/mL (carmine spider mite; Tetranychus cinnabarinus, 72 h, 100 mg/L, contrastive test, read-out: Insecticidal activity against carmine spider mite (% )): 100%; pest or weed control at 600 µg/mL (carmine spider mite; Tetranychus cinnabarinus, 72 h, 600 mg/L, contrastive test, read-out: Insecticidal activity against carmine spider mite (% )): 100%; protectant activity against corn rust in vivo (corn rust; 100 ppm): 100%; protectant activity against corn rust in vivo (corn rust; 400 ppm): 100%; protectant activity against wheat powdery mildew in vivo (wheat powdery mildew; 100 ppm): 100%; protectant activity against wheat powdery mildew in vivo (wheat powdery mildew; 400 ppm): 100% |

Reference: patent US9770026B2, “Substituted pyrimidine compound and uses thereof” (Shenyang Sinochem Agrochemicals R&D Co., Ltd., priority 2012, dated 2017)
